# Measurements reported in the supplement of paper PMC6045584.
# ± gives the standard deviation of the averaged measurements.
# Compound: Oc1ccc(/C=C/c2cc(O)cc(O)c2)cc1 [RESVERATROL]
# Assay: surviving fraction relative to DMSO-only wells; higher = less growth inhibition
# Settings: 0.5 nM; exposure time: 5 days
# How it was run: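 At 250–500 cells per well in 384-well plates, log-phase tumour cell lines were seeded and, 24 hours on, exposed continuously for five days to inhibitors at 0.5, 1, 5, 10, 50, 100, 500 and 1000 nM. Viability readout was CellTiter-Glo luminescence, reported as surviving fraction normalised to the median of DMSO-only wells.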
row,Test System,surviving fraction
1,SCC36 HEADNECK,1.13 ± 0.082
2,OS25HAL BONE,1.01 ± 0.026
3,HCC1806 BREAST,1.04 ± 0.073
4,HU09 BONE,0.972 ± 0.079
5,SG43 HEADNECK,0.856 ± 0.14
6,U2OS BONE,1.06 ± 0.018
7,HOSMNG BONE,0.83 ± 0.15
8,CASKI CERVIX,0.938 ± 0.09
9,SUM44 BREAST,1.1 ± 0.1
10,MDAMB231 BREAST,0.97 ± 0.01
11,CAL51 BREAST,0.901 ± 0.03
12,MDAMB436 BREAST,0.943 ± 0.049
13,HSSYII SYNOVIAL,0.951 ± 0.067
14,RDES SOFT TISSUE,1.25 ± 0.14
15,MDAMB157 BREAST,1.01 ± 0.061
16,CHLA90 AUTONOMIC GANGLIA,1.01 ± 0.075
17,CADOES1 SOFT TISSUE,0.972 ± 0.09
18,SG31 HEADNECK,1.1 ± 0.23
19,SCC47 HEADNECK,1.09 ± 0.13
20,S68 BREAST,0.829 ± 0.095

row,Test System,surviving fraction
1,SNU475 LIVER,0.98 ± 0.043
2,22RV1 PROSTATE,1.01 ± 0.05
3,SG32 HEADNECK,1.02 ± 0.14
4,SCC003 HEADNECK,1.05 ± 0.056
5,JURKAT HAEMATOPOIETIC AND LYMPHOID TISSUE,1.022 ± 0.0052
6,HT1080 SOFT TISSUE,1.03 ± 0.031
7,CAL120 BREAST,0.966 ± 0.049
8,MCF7 BREAST,0.91 ± 0.027
9,MFM223 BREAST,1.06 ± 0.062
10,LNCAP PROSTATE,0.912 ± 0.051
11,PCI30 HEADNECK,1 ± 0.031
12,OSHN BONE,1.02 ± 0.022
13,SG28 HEADNECK,1.03 ± 0.12
14,HOS BONE,1.016 ± 0.0053
15,HUO3N1 BONE,1.01 ± 0.036
16,BT20 BREAST,1.05 ± 0.052
17,SJSA1 BONE,1.62 ± 0.083
18,JIMT1 BREAST,1.03 ± 0.038
19,HCC78 LUNG,0.894 ± 0.15
20,NY BONE,0.936 ± 0.024

# Same assay, conditions: 1 nM; exposure time: 5 days
row,Test System,surviving fraction
1,SCC36 HEADNECK,1.14 ± 0.11
2,OS25HAL BONE,1.11 ± 0.059
3,HCC1806 BREAST,1.04 ± 0.072
4,HU09 BONE,1.08 ± 0.1
5,SG43 HEADNECK,1.06 ± 0.048
6,U2OS BONE,1.04 ± 0.022
7,HOSMNG BONE,0.872 ± 0.023
8,CASKI CERVIX,0.926 ± 0.033
9,SUM44 BREAST,1.18 ± 0.28
10,MDAMB231 BREAST,0.996 ± 0.013
11,CAL51 BREAST,1.04 ± 0.033
12,MDAMB436 BREAST,1.01 ± 0.17
13,HSSYII SYNOVIAL,1.01 ± 0.029
14,RDES SOFT TISSUE,1.25 ± 0.05
15,MDAMB157 BREAST,1.06 ± 0.048
16,CHLA90 AUTONOMIC GANGLIA,0.996 ± 0.049
17,CADOES1 SOFT TISSUE,0.939 ± 0.14
18,SG31 HEADNECK,1.23 ± 0.18
19,SCC47 HEADNECK,1.11 ± 0.096
20,S68 BREAST,0.815 ± 0.21

row,Test System,surviving fraction
1,SNU475 LIVER,1.04 ± 0.029
2,22RV1 PROSTATE,1.04 ± 0.076
3,SG32 HEADNECK,0.975 ± 0.06
4,SCC003 HEADNECK,1.06 ± 0.15
5,JURKAT HAEMATOPOIETIC AND LYMPHOID TISSUE,1.04 ± 0.022
6,HT1080 SOFT TISSUE,1.03 ± 0.019
7,CAL120 BREAST,1.01 ± 0.059
8,MCF7 BREAST,1.01 ± 0.074
9,MFM223 BREAST,1.45 ± 0.56
10,LNCAP PROSTATE,0.987 ± 0.098
11,PCI30 HEADNECK,1.02 ± 0.058
12,OSHN BONE,1.106 ± 0.0076
13,SG28 HEADNECK,1.07 ± 0.1
14,HOS BONE,1.05 ± 0.03
15,HUO3N1 BONE,1.07 ± 0.037
16,BT20 BREAST,1.13 ± 0.1
17,SJSA1 BONE,1.74 ± 0.059
18,JIMT1 BREAST,1.04 ± 0.042
19,HCC78 LUNG,0.894 ± 0.065
20,NY BONE,0.976 ± 0.03

# Same assay, conditions: 5 nM; exposure time: 5 days
row,Test System,surviving fraction
1,SCC36 HEADNECK,1.22 ± 0.044
2,OS25HAL BONE,1.03 ± 0.032
3,HCC1806 BREAST,1.18 ± 0.14
4,HU09 BONE,1.13 ± 0.1
5,SG43 HEADNECK,0.867 ± 0.23
6,U2OS BONE,1.04 ± 0.029
7,HOSMNG BONE,0.832 ± 0.1
8,CASKI CERVIX,0.959 ± 0.045
9,SUM44 BREAST,1.19 ± 0.27
10,MDAMB231 BREAST,0.9638 ± 0.0043
11,CAL51 BREAST,1.07 ± 0.034
12,MDAMB436 BREAST,0.998 ± 0.2
13,HSSYII SYNOVIAL,1.01 ± 0.015
14,RDES SOFT TISSUE,1.29 ± 0.042
15,MDAMB157 BREAST,0.972 ± 0.057
16,CHLA90 AUTONOMIC GANGLIA,0.984 ± 0.024
17,CADOES1 SOFT TISSUE,0.952 ± 0.047
18,SG31 HEADNECK,1.03 ± 0.095
19,SCC47 HEADNECK,1.09 ± 0.066
20,S68 BREAST,0.993 ± 0.36

row,Test System,surviving fraction
1,SNU475 LIVER,1.02 ± 0.06
2,22RV1 PROSTATE,1.05 ± 0.067
3,SG32 HEADNECK,1.16 ± 0.25
4,SCC003 HEADNECK,1.14 ± 0.012
5,JURKAT HAEMATOPOIETIC AND LYMPHOID TISSUE,1.02 ± 0.011
6,HT1080 SOFT TISSUE,0.995 ± 0.024
7,CAL120 BREAST,0.975 ± 0.058
8,MCF7 BREAST,0.927 ± 0.068
9,MFM223 BREAST,1.15 ± 0.042
10,LNCAP PROSTATE,0.897 ± 0.11
11,PCI30 HEADNECK,1.04 ± 0.03
12,OSHN BONE,1.07 ± 0.017
13,SG28 HEADNECK,1.15 ± 0.11
14,HOS BONE,1.018 ± 0.009
15,HUO3N1 BONE,1.04 ± 0.034
16,BT20 BREAST,1.13 ± 0.038
17,SJSA1 BONE,1.65 ± 0.053
18,JIMT1 BREAST,1.05 ± 0.047
19,HCC78 LUNG,0.983 ± 0.035
20,NY BONE,1.06 ± 0.022

# Same assay, conditions: 10 nM; exposure time: 5 days
row,Test System,surviving fraction
1,SCC36 HEADNECK,1.19 ± 0.045
2,OS25HAL BONE,0.996 ± 0.024
3,HCC1806 BREAST,1.18 ± 0.051
4,HU09 BONE,1.07 ± 0.077
5,SG43 HEADNECK,0.914 ± 0.025
6,U2OS BONE,1.06 ± 0.054
7,HOSMNG BONE,0.722 ± 0.061
8,CASKI CERVIX,0.963 ± 0.049
9,SUM44 BREAST,1.25 ± 0.36
10,MDAMB231 BREAST,0.993 ± 0.016
11,CAL51 BREAST,1.03 ± 0.038
12,MDAMB436 BREAST,1.01 ± 0.11
13,HSSYII SYNOVIAL,0.995 ± 0.016
14,RDES SOFT TISSUE,1.32 ± 0.054
15,MDAMB157 BREAST,1.1 ± 0.038
16,CHLA90 AUTONOMIC GANGLIA,1.03 ± 0.033
17,CADOES1 SOFT TISSUE,0.931 ± 0.074
18,SG31 HEADNECK,1.13 ± 0.095
19,SCC47 HEADNECK,1.21 ± 0.038
20,S68 BREAST,0.818 ± 0.095

row,Test System,surviving fraction
1,SNU475 LIVER,0.988 ± 0.029
2,22RV1 PROSTATE,1.04 ± 0.024
3,SG32 HEADNECK,0.989 ± 0.051
4,SCC003 HEADNECK,1.12 ± 0.058
5,JURKAT HAEMATOPOIETIC AND LYMPHOID TISSUE,1.04 ± 0.033
6,HT1080 SOFT TISSUE,1.04 ± 0.033
7,CAL120 BREAST,0.983 ± 0.069
8,MCF7 BREAST,0.947 ± 0.03
9,MFM223 BREAST,1.46 ± 0.46
10,LNCAP PROSTATE,0.775 ± 0.12
11,PCI30 HEADNECK,1.1 ± 0.08
12,OSHN BONE,1.099 ± 0.004
13,SG28 HEADNECK,1 ± 0.057
14,HOS BONE,1.02 ± 0.021
15,HUO3N1 BONE,1.06 ± 0.06
16,BT20 BREAST,1.15 ± 0.059
17,SJSA1 BONE,1.79 ± 0.04
18,JIMT1 BREAST,1.01 ± 0.029
19,HCC78 LUNG,1.05 ± 0.15
20,NY BONE,1.06 ± 0.048
